The numbers were not newly measured in US11268059B2, “Apparatuses, systems, and methods for culturing cells” (eXo Cell, LLC, priority 2015, dated 2022), which cites them from elsewhere.

For data set [1], the system named is obese, diabetic yellow KK mice.
The subject of data set [2] is BAT. As to conditions: humans.
In data set [3] the test system is obese human males.
Data set [4] relates to ex vivo human adipocytes. Conditions: Ang II stimulation.
Data set [5] has as its system isolated adipocytes and differentiated adipocytes (diffAds).

`C[C@H](Cc1ccc2c(c1)OC(C(=O)[O-])(C(=O)[O-])O2)NC[C@H](O)c1cccc(Cl)c1.[Na+].[Na+]` [CL-316243]: in data set [1], the effect on obesity entry was “ameliorated obesity”. Consider `Nc1nc(CC(=O)Nc2ccc(CCNC[C@H](O)c3ccccc3)cc2)cs1` [migrabegron], for which the BAT activation result in data set [2] was “activates BAT”. As for `O=S(=O)(Nc1ccc(CCNC[C@H](O)c2cccnc2)cc1)c1ccc(-c2nc(-c3ccc(C(F)(F)F)cc3)cs2)cc1` [L-796568], in data set [3], the anti-obesity effects entry is listed as “did not generate notable anti-obesity effects” and the energy expenditure result is on record as “improved energy expenditure”. “angiotensin II (DRVYIHPF; Angiotensin-2; UniProt P01019 25-32, looked up) [Ang II, angiotensin II, component of the renin-angiotensin system]”: the lipolysis entry in data set [4] is listed as “inhibited lipolysis”. In addition, the adipogenesis entry in data set [5] was “may induce adipogenesis”.
